Results taken from ChEMBL document CHEMBL4800728, “Data for DCP probe JNJ-54119936” (2021).
Activity calls are given as the source filed them. The rule behind the calls is not given here.

Experiments:
[1] = target: Sigma non-opioid intracellular receptor 1 (Homo sapiens, UniProt Q99720); assay: GPCRScan assay: inhibition of Sigma 1; set-up: radioligand conc. used [nm] 4.0 – 5.0, parental cells HEKT
[2] = target: Nuclear receptor ROR-gamma (Homo sapiens, UniProt P51449); assay: One-hybrid LBD; set-up: compound concentration 6 uM
[3] = target: Tyrosine-protein kinase Blk (Homo sapiens) (UniProt P51451); assay: Blk Invitrogen kinase panel; settings: Compound concentration 10.0 uM
[4] = target: Casein kinase I isoform epsilon (Homo sapiens) (UniProt P49674); assay: CK1epsilon Invitrogen kinase panel; settings: Compound concentration 10.0 uM
[5] = target: Tyrosine-protein kinase JAK3 (Homo sapiens) (UniProt P52333); assay: JAK3 Invitrogen kinase panel; settings: Compound concentration 10.0 uM
[6] = target: Mitogen-activated protein kinase 13 (Homo sapiens) (UniProt O15264); assay: p38delta Invitrogen kinase panel; settings: Compound concentration 10.0 uM
[7] = target: Rho-associated protein kinase 1 (Homo sapiens) (UniProt Q13464); assay: ROCK_I Invitrogen kinase panel; settings: Compound concentration 10.0 uM
[8] = target: Proto-oncogene tyrosine-protein kinase Src (Homo sapiens) (UniProt P12931); assay: SRC Invitrogen kinase panel; settings: Compound concentration 10.0 uM
[9] = target: Oxysterols receptor LXR-alpha (Homo sapiens) (UniProt Q13133); assay: (§1) LXRalpha In-house nuclear receptor screen; settings: Compound concentration 3.0 uM
[10] = target: Oxysterols receptor LXR-alpha (Homo sapiens, UniProt Q13133); assay: as §1
[11] = target: T1, Estrogen receptor (Homo sapiens) (UniProt P03372); assay: ERalpha In-house nuclear receptor screen; settings: Compound concentration 3.0 uM
T1 sequence (whole entry): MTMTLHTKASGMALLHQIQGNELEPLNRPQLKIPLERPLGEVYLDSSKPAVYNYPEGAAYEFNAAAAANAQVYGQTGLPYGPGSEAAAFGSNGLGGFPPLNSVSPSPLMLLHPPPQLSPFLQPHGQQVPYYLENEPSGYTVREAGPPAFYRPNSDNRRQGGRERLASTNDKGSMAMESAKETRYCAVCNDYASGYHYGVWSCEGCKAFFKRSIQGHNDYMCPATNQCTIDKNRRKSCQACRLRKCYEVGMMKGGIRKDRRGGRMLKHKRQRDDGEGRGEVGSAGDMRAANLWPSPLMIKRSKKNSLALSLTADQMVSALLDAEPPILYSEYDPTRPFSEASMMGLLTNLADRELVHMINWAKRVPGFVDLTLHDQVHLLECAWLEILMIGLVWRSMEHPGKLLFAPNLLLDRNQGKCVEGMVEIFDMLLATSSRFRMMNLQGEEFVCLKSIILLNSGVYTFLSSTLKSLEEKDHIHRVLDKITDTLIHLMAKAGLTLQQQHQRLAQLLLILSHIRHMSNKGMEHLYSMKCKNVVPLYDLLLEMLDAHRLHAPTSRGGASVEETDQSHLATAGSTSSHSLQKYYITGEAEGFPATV

[12] = target: Adenosine receptor A2a (Homo sapiens) (UniProt P29274); assay: A2a (h) CEREP screen
[13] = target: GABA-A receptor; anion channel (Homo sapiens) (UniProt P14867+P47870+P18507+P28472+P48169+Q99928+Q9UN88+P34903+O00591+O14764+Q8N1C3+P18505+P78334+P47869+P31644+Q16445); assay: GABA (non selective) CEREP screen; assay type: protein-complex assay; settings: Compound concentration 1.0 uM
[14] = target: Melatonin receptor type 1A (Homo sapiens) (UniProt P48039); assay: MT1 (ML1A) (h) CEREP screen; settings: Compound concentration 10.0 uM
[15] = target: Neuromedin-K receptor (Homo sapiens) (UniProt P29371); assay: NK3 (h) CEREP screen
[16] = target: T2, Bile acid receptor (Homo sapiens) (UniProt Q96RI1); assay: FXR Indigo Bioscience nuclear receptor screen
T2 sequence (whole entry): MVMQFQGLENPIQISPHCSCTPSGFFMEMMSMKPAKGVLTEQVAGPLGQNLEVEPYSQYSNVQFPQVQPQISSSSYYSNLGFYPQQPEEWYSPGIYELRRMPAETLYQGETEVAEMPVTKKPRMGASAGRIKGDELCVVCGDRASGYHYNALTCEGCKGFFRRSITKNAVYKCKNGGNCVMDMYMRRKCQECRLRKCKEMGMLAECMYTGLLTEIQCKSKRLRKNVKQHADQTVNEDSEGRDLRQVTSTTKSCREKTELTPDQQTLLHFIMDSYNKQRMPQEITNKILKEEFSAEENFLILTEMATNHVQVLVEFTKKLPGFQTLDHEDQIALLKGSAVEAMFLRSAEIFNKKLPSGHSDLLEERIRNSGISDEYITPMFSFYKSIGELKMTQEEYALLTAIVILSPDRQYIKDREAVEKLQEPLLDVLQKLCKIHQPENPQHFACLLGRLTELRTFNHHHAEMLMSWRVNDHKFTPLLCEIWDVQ

[17] = target: Thyroid hormone receptor beta (Homo sapiens) (UniProt P10828); assay: TRbeta Indigo Bioscience nuclear receptor screen; settings: Compound concentration 0.3 uM
[18] = target: Oxysterols receptor LXR-alpha (Homo sapiens) (UniProt Q13133); assay: LXRalpha Indigo Bioscience nuclear receptor screen; settings: Compound concentration 0.3 uM
[19] = target: T3, CAR (nuclear receptor subfamily 1 group I member 3) (Homo sapiens, UniProt Q14994); assay: CAR Indigo Bioscience nuclear receptor screen
T3 sequence (Q14994 whole entry): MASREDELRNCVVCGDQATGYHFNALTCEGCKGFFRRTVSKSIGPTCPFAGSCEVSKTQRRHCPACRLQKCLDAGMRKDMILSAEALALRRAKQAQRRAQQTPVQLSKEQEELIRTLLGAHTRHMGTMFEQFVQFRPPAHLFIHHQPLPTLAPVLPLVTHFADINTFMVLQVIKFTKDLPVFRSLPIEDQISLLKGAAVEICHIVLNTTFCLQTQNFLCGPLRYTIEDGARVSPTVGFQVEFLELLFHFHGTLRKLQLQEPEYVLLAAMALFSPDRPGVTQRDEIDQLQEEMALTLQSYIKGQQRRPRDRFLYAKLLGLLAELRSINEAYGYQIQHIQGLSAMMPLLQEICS

[20] = target: 5-hydroxytryptamine receptor 1A (Homo sapiens) (UniProt P08908); settings: Compound concentration 10.0 uM
[21] = target: 5-hydroxytryptamine receptor 1B (Homo sapiens) (UniProt P28222); settings: Compound concentration 10.0 uM
[22] = target: 5-hydroxytryptamine receptor 7 (Homo sapiens) (UniProt P34969); settings: Compound concentration 10.0 uM
[23] = target: D(1B) dopamine receptor (Homo sapiens) (UniProt P21918); settings: Compound concentration 10.0 uM
[24] = target: Sodium-dependent serotonin transporter (Homo sapiens) (UniProt P31645); settings: Compound concentration 10.0 uM
[25] = target: Histamine H2 receptor (Homo sapiens) (UniProt P25021); settings: Compound concentration 10.0 uM
[26] = target: Alpha-1B adrenergic receptor (Homo sapiens) (UniProt P35368); settings: Compound concentration 10.0 uM

Sigma non-opioid intracellular receptor 1, sequence (Q99720 whole entry, the tested form may be a part): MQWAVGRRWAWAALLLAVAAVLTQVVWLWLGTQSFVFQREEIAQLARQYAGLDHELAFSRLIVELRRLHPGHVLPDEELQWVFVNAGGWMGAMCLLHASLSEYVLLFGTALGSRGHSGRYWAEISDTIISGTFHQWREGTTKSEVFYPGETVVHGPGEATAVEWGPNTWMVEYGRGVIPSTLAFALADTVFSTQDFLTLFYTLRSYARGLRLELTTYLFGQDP
Neuromedin-K receptor (Homo sapiens), sequence (P29371 whole entry): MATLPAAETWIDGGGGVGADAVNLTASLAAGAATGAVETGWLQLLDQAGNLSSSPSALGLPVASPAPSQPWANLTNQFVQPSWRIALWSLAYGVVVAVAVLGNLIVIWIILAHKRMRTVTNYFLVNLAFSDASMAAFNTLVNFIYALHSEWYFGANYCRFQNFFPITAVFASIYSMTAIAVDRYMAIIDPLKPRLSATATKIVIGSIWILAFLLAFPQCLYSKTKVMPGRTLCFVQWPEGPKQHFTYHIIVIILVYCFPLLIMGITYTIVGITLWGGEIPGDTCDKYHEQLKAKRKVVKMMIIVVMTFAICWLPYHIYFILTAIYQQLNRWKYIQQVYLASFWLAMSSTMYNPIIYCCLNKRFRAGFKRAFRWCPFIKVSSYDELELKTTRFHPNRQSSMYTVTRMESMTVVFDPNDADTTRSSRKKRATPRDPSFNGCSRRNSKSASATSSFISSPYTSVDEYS
Adenosine receptor A2a (Homo sapiens), sequence (P29274 whole entry): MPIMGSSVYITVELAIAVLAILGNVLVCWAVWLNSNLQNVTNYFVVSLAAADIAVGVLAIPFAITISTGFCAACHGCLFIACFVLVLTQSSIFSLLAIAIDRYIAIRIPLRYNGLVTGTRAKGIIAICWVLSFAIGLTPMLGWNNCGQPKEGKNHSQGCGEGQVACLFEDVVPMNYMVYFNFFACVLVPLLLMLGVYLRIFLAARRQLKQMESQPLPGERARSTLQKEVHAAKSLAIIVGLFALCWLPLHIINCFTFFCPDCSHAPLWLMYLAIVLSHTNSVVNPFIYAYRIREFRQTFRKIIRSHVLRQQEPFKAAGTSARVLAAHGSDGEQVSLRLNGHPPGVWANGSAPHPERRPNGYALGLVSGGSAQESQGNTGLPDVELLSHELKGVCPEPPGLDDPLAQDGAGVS
Oxysterols receptor LXR-alpha (Homo sapiens), sequence (Q13133 whole entry): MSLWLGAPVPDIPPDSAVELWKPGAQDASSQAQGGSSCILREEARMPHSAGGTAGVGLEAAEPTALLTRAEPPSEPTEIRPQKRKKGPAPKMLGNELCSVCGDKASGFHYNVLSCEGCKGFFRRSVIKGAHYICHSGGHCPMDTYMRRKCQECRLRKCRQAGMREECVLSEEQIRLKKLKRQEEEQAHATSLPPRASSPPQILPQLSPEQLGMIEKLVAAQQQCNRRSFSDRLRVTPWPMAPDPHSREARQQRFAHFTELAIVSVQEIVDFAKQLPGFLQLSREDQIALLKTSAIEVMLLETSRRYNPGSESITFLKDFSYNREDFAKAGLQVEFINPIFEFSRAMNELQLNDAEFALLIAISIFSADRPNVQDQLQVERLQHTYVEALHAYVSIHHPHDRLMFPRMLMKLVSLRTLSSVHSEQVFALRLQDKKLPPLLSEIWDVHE
Mitogen-activated protein kinase 13 (Homo sapiens), sequence (O15264 whole entry): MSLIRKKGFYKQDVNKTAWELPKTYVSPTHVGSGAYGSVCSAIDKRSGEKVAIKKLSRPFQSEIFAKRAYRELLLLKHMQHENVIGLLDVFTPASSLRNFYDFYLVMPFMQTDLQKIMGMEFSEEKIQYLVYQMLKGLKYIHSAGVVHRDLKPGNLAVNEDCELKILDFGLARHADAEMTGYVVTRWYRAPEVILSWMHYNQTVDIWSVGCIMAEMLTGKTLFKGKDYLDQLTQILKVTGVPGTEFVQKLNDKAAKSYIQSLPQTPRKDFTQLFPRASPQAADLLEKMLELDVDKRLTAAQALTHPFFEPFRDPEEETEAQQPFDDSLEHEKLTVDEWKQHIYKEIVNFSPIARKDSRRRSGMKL
Proto-oncogene tyrosine-protein kinase Src (Homo sapiens), sequence (P12931 2-536 limits assumed): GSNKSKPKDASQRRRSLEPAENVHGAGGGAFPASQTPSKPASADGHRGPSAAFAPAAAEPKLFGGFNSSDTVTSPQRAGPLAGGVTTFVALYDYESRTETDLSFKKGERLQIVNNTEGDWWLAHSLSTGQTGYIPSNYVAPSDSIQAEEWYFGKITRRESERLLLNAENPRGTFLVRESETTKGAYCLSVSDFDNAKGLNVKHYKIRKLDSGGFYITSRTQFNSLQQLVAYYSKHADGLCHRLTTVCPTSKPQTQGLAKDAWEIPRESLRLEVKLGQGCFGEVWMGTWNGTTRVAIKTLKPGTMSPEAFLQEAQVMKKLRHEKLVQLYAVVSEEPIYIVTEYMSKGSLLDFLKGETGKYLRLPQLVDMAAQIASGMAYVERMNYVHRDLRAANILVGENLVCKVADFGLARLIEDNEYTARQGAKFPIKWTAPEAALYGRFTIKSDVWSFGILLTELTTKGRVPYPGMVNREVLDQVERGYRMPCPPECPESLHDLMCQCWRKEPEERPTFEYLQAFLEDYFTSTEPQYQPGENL
Casein kinase I isoform epsilon (Homo sapiens), sequence (P49674 whole entry, looked up, canonical isoform): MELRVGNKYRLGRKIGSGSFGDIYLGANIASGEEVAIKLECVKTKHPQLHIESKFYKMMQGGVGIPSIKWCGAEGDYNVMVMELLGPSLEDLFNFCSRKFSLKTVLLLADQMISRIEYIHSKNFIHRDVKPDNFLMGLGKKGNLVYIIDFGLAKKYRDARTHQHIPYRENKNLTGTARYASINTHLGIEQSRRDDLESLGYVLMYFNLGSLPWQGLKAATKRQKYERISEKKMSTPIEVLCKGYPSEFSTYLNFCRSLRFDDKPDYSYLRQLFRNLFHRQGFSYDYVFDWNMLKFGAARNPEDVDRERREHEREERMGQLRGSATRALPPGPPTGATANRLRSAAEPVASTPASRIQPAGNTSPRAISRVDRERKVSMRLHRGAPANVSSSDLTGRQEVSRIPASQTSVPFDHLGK
Rho-associated protein kinase 1 (Homo sapiens), sequence (Q13464 2-1354 limits assumed): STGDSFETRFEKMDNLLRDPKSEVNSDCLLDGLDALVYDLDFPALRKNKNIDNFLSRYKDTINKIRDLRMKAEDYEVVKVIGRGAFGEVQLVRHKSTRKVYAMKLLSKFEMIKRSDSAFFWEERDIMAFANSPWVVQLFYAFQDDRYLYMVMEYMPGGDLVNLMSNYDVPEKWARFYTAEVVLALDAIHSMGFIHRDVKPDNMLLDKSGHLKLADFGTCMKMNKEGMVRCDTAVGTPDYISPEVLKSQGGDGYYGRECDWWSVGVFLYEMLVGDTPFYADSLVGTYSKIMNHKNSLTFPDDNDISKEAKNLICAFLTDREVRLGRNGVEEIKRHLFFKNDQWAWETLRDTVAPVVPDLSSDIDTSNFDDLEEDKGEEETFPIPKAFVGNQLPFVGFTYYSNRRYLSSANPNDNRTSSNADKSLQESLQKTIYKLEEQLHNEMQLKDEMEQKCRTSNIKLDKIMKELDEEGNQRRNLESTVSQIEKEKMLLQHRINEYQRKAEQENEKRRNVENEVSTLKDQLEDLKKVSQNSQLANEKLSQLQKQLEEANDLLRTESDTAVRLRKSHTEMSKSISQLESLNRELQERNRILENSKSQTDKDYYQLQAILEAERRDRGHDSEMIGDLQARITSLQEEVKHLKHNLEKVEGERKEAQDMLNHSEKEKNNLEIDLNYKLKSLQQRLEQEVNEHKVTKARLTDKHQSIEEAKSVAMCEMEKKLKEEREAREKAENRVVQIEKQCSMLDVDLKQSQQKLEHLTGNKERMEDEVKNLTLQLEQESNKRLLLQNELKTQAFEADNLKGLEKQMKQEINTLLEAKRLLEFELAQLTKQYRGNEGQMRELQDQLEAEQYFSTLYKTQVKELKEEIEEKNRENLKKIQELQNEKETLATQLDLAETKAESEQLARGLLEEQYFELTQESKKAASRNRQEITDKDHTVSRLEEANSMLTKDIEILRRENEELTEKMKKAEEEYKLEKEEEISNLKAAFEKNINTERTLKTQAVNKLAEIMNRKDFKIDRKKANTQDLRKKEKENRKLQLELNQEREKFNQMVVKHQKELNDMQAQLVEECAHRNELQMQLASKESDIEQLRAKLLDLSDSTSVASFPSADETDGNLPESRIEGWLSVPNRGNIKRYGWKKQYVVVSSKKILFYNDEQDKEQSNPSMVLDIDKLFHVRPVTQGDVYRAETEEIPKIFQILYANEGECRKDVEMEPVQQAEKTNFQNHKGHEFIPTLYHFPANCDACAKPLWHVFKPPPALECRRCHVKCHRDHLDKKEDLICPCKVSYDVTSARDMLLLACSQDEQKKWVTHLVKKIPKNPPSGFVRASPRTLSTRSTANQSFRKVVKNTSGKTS
5-hydroxytryptamine receptor 1A (Homo sapiens), sequence (P08908 whole entry): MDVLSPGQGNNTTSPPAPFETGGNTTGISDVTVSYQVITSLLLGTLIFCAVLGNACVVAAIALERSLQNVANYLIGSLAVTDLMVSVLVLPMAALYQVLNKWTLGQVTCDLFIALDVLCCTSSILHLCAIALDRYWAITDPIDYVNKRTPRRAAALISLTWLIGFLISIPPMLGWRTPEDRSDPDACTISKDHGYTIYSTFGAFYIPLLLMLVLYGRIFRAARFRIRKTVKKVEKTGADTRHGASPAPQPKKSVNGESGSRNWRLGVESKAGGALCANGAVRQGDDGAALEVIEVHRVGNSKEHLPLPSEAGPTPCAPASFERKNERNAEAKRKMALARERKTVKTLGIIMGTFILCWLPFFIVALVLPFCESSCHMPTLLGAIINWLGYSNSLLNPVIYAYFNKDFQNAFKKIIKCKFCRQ
Histamine H2 receptor (Homo sapiens), sequence (P25021 whole entry): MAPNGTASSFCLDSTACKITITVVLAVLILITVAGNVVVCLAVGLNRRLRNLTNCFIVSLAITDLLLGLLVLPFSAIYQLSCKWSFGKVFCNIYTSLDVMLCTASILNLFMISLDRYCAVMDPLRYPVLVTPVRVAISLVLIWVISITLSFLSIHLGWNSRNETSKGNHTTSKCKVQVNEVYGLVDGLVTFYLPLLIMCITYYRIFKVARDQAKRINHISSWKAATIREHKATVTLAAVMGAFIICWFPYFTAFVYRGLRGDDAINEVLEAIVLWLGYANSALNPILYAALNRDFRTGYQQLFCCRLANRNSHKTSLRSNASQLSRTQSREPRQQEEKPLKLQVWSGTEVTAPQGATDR

COc1nc2ccc([C@@](O)(c3ccccc3)C3CCN(C(C)=O)CC3)cc2c(Cl)c1Cc1ccc(-n2cccn2)cc1 [JNJ-54119936]
Ki ([1]; read-out: Ki): 3.13 µM | Ki ([1]; read-out: pKi (converted)): 3.02 µM | IC50 [2]: 0.03 µM (active) | inhibition [3]: 0% | inhibition [4]: 0% | inhibition [5]: 2% | inhibition [6]: 14% | inhibition [7]: 4% | inhibition [8]: 4% | inhibition [9]: 31% | IC50 [10]: 6.4 µM | inhibition [11]: 16.8% | inhibition ([12]; Compound concentration 1.0 uM): 18% | inhibition ([12]; Compound concentration 10.0 uM): 21% | inhibition [13]: 12% | inhibition [14]: 20% | inhibition ([15]; Compound concentration 1.0 uM): 18% | inhibition ([15]; Compound concentration 10.0 uM): 22% | inhibition ([16]; Compound concentration 0.3 uM): -8.5% | inhibition ([16]; Compound concentration 1.0 uM): 5.23% | inhibition [17]: 1.13% | inhibition [18]: -3.25% | inhibition at 0.3 µM ([19]; compound concentration 0.3 uM): -0.121% (not active) | inhibition at 1 µM ([19]; compound concentration 1 uM): -0.752% (not active) | inhibition at 3 µM ([19]; compound concentration 3 uM): 2.37% (not active) | inhibition [20]: 16.6% | inhibition [21]: 8.87% | inhibition [22]: -2.29% | inhibition [23]: 33.9% | inhibition [24]: 5.62% | inhibition [25]: -0.99% | inhibition [26]: -4.69%
